Measured values published in article PMC8799644, “Decisive role of water and protein dynamics in residence time of p38α MAP kinase inhibitors” (Nature Communications, 2022).
“And” between values parts separate entries of the source, which are not always exact repeats. Equal entries are not always repeated. Where two headings read alike, the source gives them in different places.

How the values were obtained:
p38α MAP kinase = p38α MAP kinase (Homo sapiens, UniProt Q16539); test: ADP-Glo luminescence kinase assay (isolated enzyme); format: biochemical
Sequence of p38α MAP kinase (Q16539 whole entry): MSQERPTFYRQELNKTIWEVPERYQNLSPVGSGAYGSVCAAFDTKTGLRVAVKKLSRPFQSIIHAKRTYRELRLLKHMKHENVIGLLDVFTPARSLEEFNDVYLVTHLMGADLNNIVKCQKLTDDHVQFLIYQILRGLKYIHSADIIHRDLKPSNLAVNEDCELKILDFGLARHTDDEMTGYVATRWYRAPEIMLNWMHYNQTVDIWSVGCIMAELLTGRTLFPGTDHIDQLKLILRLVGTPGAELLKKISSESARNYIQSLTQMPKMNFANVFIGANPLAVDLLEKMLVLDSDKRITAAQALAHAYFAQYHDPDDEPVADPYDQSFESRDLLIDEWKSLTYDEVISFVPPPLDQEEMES
Protocol: IC50 determinations were performed using the luminescence-based ADP-Glo^TM assay by Promega, which measures kinase activity based on ADP formation. All required reagents were prepared according to manufacturer’s protocol. […] The kinase reaction was started by adding the substrate and ATP. After 60 min incubation time, the reaction was terminated by adding ADP-Glo^TM reagent and an incubation time of 60 min. At last, ADP-Glo TM kinase detection reagent was added and incubated for 30 min. All reactions were carried out on a plate shaker at room temperature. […] The ratio between kinase reaction, ADP-Glo TM reagent and ADP-Glo TM kinase detection reagent was 1:1:2. The positive control consisted of p38α MAP kinase, substrate and buffer. The assay was performed in triplicates. The negative control consisted of all kinase reaction components without enzyme. Luminescence was detected using the plate reader FilterMax F5 by Molecular Devices with subsequent data analysis using GraphPad Prism version 7.0.0. for Windows (GraphPad Software, San Diego, CA, USA).

p38α MAPK [1] = target: T1, p38α MAPK (Homo sapiens, UniProt Q16539); test: HotSpot radiometric kinase assay (Reaction Biology); format: biochemical; conditions: n = 1; 10 μM ATP; read-out: IC50 isolated enzyme p38α MAPK HotSpot
T1 sequence (Q16539 whole entry): as above
Protocol: Hotspot^TM radiometric assay[49] was conducted by Reaction Biology (Reaction Biology Corp., Malvern, PA, USA). In brief, five-dose singleton measurements were conducted starting from 1 μM compound concentration with a ten-fold serial dilution (lowest concentration of 0.1 nM). ATP concentration of 10 μM was used in the assay.

p38α MAPK [2] = target: T1, p38α MAPK; test: Fluorescence polarization (Transcreener ADP) jump-dilution target residence time; format: biochemical; conditions: for millipolarization mP: Compound 1 run, replicas 1-3
p38α MAPK [3] = target: T1, p38α MAPK; conditions: cited from earlier work
p38α MAPK [4] = target: T1, p38α MAPK; conditions: n = 2; cited from earlier work
p38α MAPK [5] = target: T1, p38α MAPK; test: Cell-based eGFP-MK2 translocation assay, DLD1_eGFP-MK2 cells; design: endogenous in cells
From the text: (§1) For optical analysis, cells were fixed using 4% PFA/PBS following DAPI staining and subjected to automated high content analysis (HCA) image acquisition using an Image Xpress micro XL microscope (Molecular Devices). 40× Plan Apo objective was used to acquire FITC and DAPI signals at nine sites per well. MetaXpress® Custom Module Editor Software (64 bit, 6.2.3.733, Molecular Devices) was trained for automated image analysis. DAPI signal was used to define nuclear region of interest (ROI) and DAPI-negative cytoplasmic ring for respective cytoplasmic ROI. Non-cellular FITC background signals were subtracted from defined ROIs. Nuclear to cytoplasmic ratios were calculated from cellular fluorescence intensities of eGFP-MK2 reporter within defined ROIs. Cells with ratios within the 10–90 percentiles of all measured cells were taken into account.
Supplementary Figure 1. Cell-based eGFP-MK2 translocation assay: DLD1 cell line.
(A) Schematic overview of the cell-based eGFP-MK2 translocation assay. Active p38a MAPK phosphorylates its nuclear substrate MapKap2 (MK2) which leads to the exposure of the nuclear export signal and results in a cytoplasmic relocalization of MK2. Using a fluorescently labelled eGFP-MK2 as reporter, nuclear-cytoplasmic translocation can be used to monitor p38a MAPK […]
(B) Human DLD1 cell line stably […]
expressing eGFP-MK2 reporter under different treatment conditions.
(1 picture or pasted object on this page, not shown here)
Shown are microscopic images which were subjected to automated high content analysis to measure and calculate nuclear to cytoplasmic ratios of eGFP-MK2 signals providing the basis to evaluate inhibitory potency of p38a MAPK modulating […]
3 independent biological replicates. Scale bar: 50 µm. (C) Inhibition of eGFP-MK2 translocation by the compounds in DLD1_eGFP-MK2 cells. Normalized fluorescence (Fl) intensity ratio of […]
respectively. […] Data are presented as mean ± standard deviation (SD) of three biological replicates. Source data are provided as a Source Data […]
(§2) Supplementary Figure 2. Cell-based eGFP-MK2 translocation assay: HCT116 cell line.
(A) Human HCT116 cell line stably expressing eGFP-MK2 reporter under different treatment

p38α MAPK [6] = target: T1, p38α MAPK; test: Cell-based eGFP-MK2 translocation assay, HCT116_eGFP-MK2 cells; design: endogenous in cells
From the text: as §1, with “account. […]” for “account.”
as §2
(A) Human HCT116 cell line stably expressing eGFP-MK2 reporter under different treatment […]
nucleus. Upon activation of the MAPK/p38 pathway, eGFP-MK2 is translocated to the cytoplasm […]
microscopic images which were subjected to automated high content analysis to measure and calculate nuclear to cytoplasmic ratios of eGFP-MK2 signals providing the basis to evaluate inhibitory potency of p38a MAPK modulating compounds. […]
sites that were imaged per condition for each of 3 independent biological replicates. Scale bar:
Normalized fluorescence (Fl) intensity ratio of nucleus/cytoplasm.
Data are presented as mean ± SD of three biological replicates. […]

## O=C(NCCN1CCOCC1)c1ccc2c(c1)C(=O)c1ccc(Nc3ccc(F)cc3F)cc1CC2 [Compound 1]
p38α MAP kinase; mean ± SD, 150 μM ATP, read-out: IC50 isolated enzyme p38α MAPK ADP-Glo (mean)
  IC50: 31.3 nM and 31 nM
p38α MAP kinase; single experiments of source data, read-out: IC50 ADP Glo, individual determination
  IC50: 35 nM and 40 nM and 19 nM
p38α MAPK [1]
  IC50: < 1 nM
p38α MAPK [2]; Time 15 min
  millipolarization mP: 250.23 mP and 238.61 mP and 252.02 mP
p38α MAPK [2]; Time 20 min
  millipolarization mP: 235.80 mP and 229.96 mP and 227.02 mP
p38α MAPK [2]; Time 25 min
  millipolarization mP: 216.96 mP and 215.61 mP and 220.53 mP
p38α MAPK [2]; Time 30 min
  millipolarization mP: 204.83 mP and 208.80 mP and 213.25 mP
p38α MAPK [2]; Time 35 min
  millipolarization mP: 199.40 mP and 197.40 mP and 204.19 mP
p38α MAPK [2]; Time 40 min
  millipolarization mP: 190.24 mP and 185.07 mP and 187.77 mP
p38α MAPK [2]; Time 45 min
  millipolarization mP: 188.70 mP and 189.13 mP and 187.22 mP
p38α MAPK [2]; Time 50 min
  millipolarization mP: 189.84 mP and 186.39 mP and 191.23 mP
p38α MAPK [2]; Time 55 min
  millipolarization mP: 181.96 mP and 176.31 mP and 180.38 mP
p38α MAPK [2]; Time 60 min
  millipolarization mP: 189.85 mP and 181.69 mP and 188.39 mP
p38α MAPK [2]; Time 65 min
  millipolarization mP: 179.72 mP and 178.04 mP and 185.39 mP
p38α MAPK [2]; Time 70 min
  millipolarization mP: 177.53 mP and 176.90 mP and 187.97 mP
p38α MAPK [2]; Time 75 min
  millipolarization mP: 176.40 mP and 178.56 mP and 178.94 mP
p38α MAPK [2]; Time 80 min
  millipolarization mP: 170.47 mP and 176.86 mP and 179.41 mP
p38α MAPK [2]; Time 85 min
  millipolarization mP: 174.74 mP and 171.47 mP and 178.98 mP
p38α MAPK [2]; Time 90 min
  millipolarization mP: 181.04 mP and 173.23 mP and 180.81 mP
p38α MAPK [2]; Time 95 min
  millipolarization mP: 176.14 mP and 169.30 mP and 175.95 mP
p38α MAPK [2]; Time 100 min
  millipolarization mP: 170.48 mP and 168.26 mP and 169.78 mP
p38α MAPK [2]; Time 105 min
  millipolarization mP: 171.74 mP and 175.00 mP and 171.83 mP
p38α MAPK [2]; Time 110 min
  millipolarization mP: 170.01 mP and 167.74 mP and 170.08 mP
p38α MAPK [2]; Time 115 min
  millipolarization mP: 166.92 mP and 166.97 mP and 168.10 mP
p38α MAPK [2]; Time 120 min
  millipolarization mP: 173.62 mP and 170.72 mP and 174.62 mP
p38α MAPK [2]; Time 125 min
  millipolarization mP: 170.41 mP and 162.47 mP and 172.42 mP
p38α MAPK [2]; Time 130 min
  millipolarization mP: 163.64 mP and 172.89 mP and 166.09 mP
p38α MAPK [2]; Time 135 min
  millipolarization mP: 165.07 mP and 173.17 mP and 167.48 mP
p38α MAPK [2]; Time 140 min
  millipolarization mP: 163.17 mP and 162.11 mP and 161.18 mP
p38α MAPK [2]; Time 145 min
  millipolarization mP: 163.48 mP and 161.58 mP and 158.43 mP
p38α MAPK [2]; Time 150 min
  millipolarization mP: 162.36 mP and 163.56 mP and 167.43 mP
p38α MAPK [2]; Time 155 min
  millipolarization mP: 167.52 mP and 168.31 mP and 165.22 mP
p38α MAPK [2]; Time 160 min
  millipolarization mP: 157.97 mP and 163.71 mP and 167.13 mP
p38α MAPK [2]; Time 170 min
  millipolarization mP: 171.90 mP and 157.15 mP and 163.48 mP
p38α MAPK [2]; Time 175 min
  millipolarization mP: 163.57 mP and 163.80 mP and 163.61 mP
p38α MAPK [2]; Time 180 min
  millipolarization mP: 166.27 mP
p38α MAPK [2]; individual replicas 1-3
  TRT: 317 s and 109 s and 270 s
p38α MAPK [2]; mean of 3 replicas
  TRT [sec] mean: 232 s
p38α MAPK [2]; mean ± SD, n = 3, 1/koff, jump dilution 1:100, 40 μM ATP, ATF2, read-out: Target residence time FP (converted)
  residence time: 3.87 min
p38α MAPK [3]; mean ± SD, n = 3, read-out: IC50 isolated enzyme p38α MAPK ELISA (mean)
  IC50: 3.4 nM and 3.35 nM
p38α MAPK [3]; single experiments of source data, read-out: IC50 ELISA, individual determination
  IC50: 3.54 nM and 3.5 nM
p38α MAPK [4]
  Target residence time SPR: 36 s
p38α MAPK [5]; DLD1_eGFP-MK2, conc. 100 pM
  norm. FI (nucleus/ cytoplasm): 0.794
p38α MAPK [5]; DLD1_eGFP-MK2, conc. 1e-9 M
  norm. FI (nucleus/ cytoplasm): 0.8106
p38α MAPK [5]; DLD1_eGFP-MK2, conc. 3e-9 M
  norm. FI (nucleus/ cytoplasm): 0.8345
p38α MAPK [5]; DLD1_eGFP-MK2, conc. 3e-8 M
  norm. FI (nucleus/ cytoplasm): 0.9192
p38α MAPK [5]; DLD1_eGFP-MK2, conc. 1e-7 M
  norm. FI (nucleus/ cytoplasm): 0.9569
p38α MAPK [5]; DLD1_eGFP-MK2, conc. 1e-6 M
  norm. FI (nucleus/ cytoplasm): 1.002
p38α MAPK [5]; DLD1_eGFP-MK2, conc. 1e-5 M
  norm. FI (nucleus/ cytoplasm): 1.014
p38α MAPK [5]; DLD1_eGFP-MK2, conc. 1e-5 M (last column, after 1e-10)
  norm. FI (nucleus/ cytoplasm): 0.8162
p38α MAPK [5]; DLD1_eGFP-MK2 cells, 1 h compound, n = 3, read-out: IC50 cell-based MK2 translocation DLD1
  IC50: 25.6 nM
p38α MAPK [6]; HCT116_eGFP-MK2, conc. 100 pM
  norm. FI (nucleus/ cytoplasm): 0.8572
p38α MAPK [6]; HCT116_eGFP-MK2, conc. 1e-9 M
  norm. FI (nucleus/ cytoplasm): 0.8754
p38α MAPK [6]; HCT116_eGFP-MK2, conc. 3e-9 M
  norm. FI (nucleus/ cytoplasm): 0.8746
p38α MAPK [6]; HCT116_eGFP-MK2, conc. 1e-8 M
  norm. FI (nucleus/ cytoplasm): 0.937
p38α MAPK [6]; HCT116_eGFP-MK2, conc. 3e-8 M
  norm. FI (nucleus/ cytoplasm): 0.9809
p38α MAPK [6]; HCT116_eGFP-MK2, conc. 1e-7 M
  norm. FI (nucleus/ cytoplasm): 1.0322
p38α MAPK [6]; HCT116_eGFP-MK2, conc. 1e-6 M
  norm. FI (nucleus/ cytoplasm): 1.03
p38α MAPK [6]; HCT116_eGFP-MK2, conc. 1e-5 M
  norm. FI (nucleus/ cytoplasm): 1.052
p38α MAPK [6]; HCT116_eGFP-MK2, conc. 1e-5 M (last column, after 1e-10)
  norm. FI (nucleus/ cytoplasm): 0.8753
p38α MAPK [6]; HCT116_eGFP-MK2 cells, 1 h compound, n = 3, read-out: IC50 cell-based MK2 translocation HCT116
  IC50: 14.9 nM
